Reference: US20230286973A1, “PROTEIN SECRETION INHIBITORS” (KEZAR LIFE SCIENCES, priority 2020, published 2023)
pEC50, pIC50: −log10 of the molar value. Like-named read-outs stand apart in the source and are kept apart here.

Legend:
[1] = test system: multiple myeloma cell line U266B1; test: U266 Cell Viability Assay; format: cell-based, human; details: Homo sapiens, U-266, 48 h, U266B1 cells, Celltiter-Glo
Outline: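 Cells grown in RPMI 1640 with 10% FBS, 2 mM glutamine and penicillin/streptomycin were exposed to compound dilutions in DMSO/media for 48 hours at 37° C., 5% CO2. Viability was read by CellTiter-Glo luminescence. Undefined stereocentres mean data for stereoisomer mixtures.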

[2] = test system: HER3-ss+4aa/Gaussia Luciferase; test: Dox-Induced Her3-ss-Gluc Assay; format: cell-based; details: 24 hr Dox induction, 293FRT/TO cells, read-out: 24 hr Dox Inducible Her3(ss + 4)Gluc 293FRT/TO: Mean IC50
Outline: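 Stable Flp-In 293 T-REx line expressing Gaussia luciferase fused to the HER3 signal sequence plus 4 amino acids under tetracycline-regulated (T-REx) control. Cells plated the day before, then treated with compound dilutions in DMSO/media containing doxycycline and incubated at 37° C., 5% CO2.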

[3] = test system: TNFα-FL/Gaussia Luciferase; test: Dox Induced TNFα-FL-Gluc Assay; format: cell-based; details: for pIC50: 24 hr Dox induction, 293FRT/TO cells, read-out: 24 hr Dox Inducible TNFaFLGluc 293FRT/TO: Mean IC50; for 24 hr Dox Inducible TNFaFLGluc 293FRT/TO: TNF/PD1: ratio of TNFaFLGluc IC50 to PD1ssGluc IC50
Outline: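 Flp-In 293 T-REx cells stably expressing full-length TNFα (aa 1-233) fused at its C-terminus to Gaussia luciferase under tetracycline-regulated control were plated the day before assay. Compound dilutions in DMSO/media containing doxycycline were added and incubated at 37 °C, 5% CO2. Unspecified stereochemistry denotes stereoisomer mixtures.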

[4] = test system: IL-2-FL/Gaussia Luciferase; test: Dox Induced IL2-FL-Gluc Assay; format: cell-based; details: for pIC50: 24 hr Dox induction, 293FRT/TO cells, read-out: 24 hr Dox Inducible IL2FLGluc 293FRT/TO: Mean IC50; for 24 hr Dox Inducible IL2FLGluc 293FRT/TO: IL2/PD1: ratio of IL2FLGluc IC50 to PD1ssGluc IC50
Outline: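 Flp-In 293 T-REx cells stably carrying doxycycline-inducible full-length IL-2 (aa 1-153) fused at its C-terminus to Gaussia luciferase, selected with hygromycin and blasticidin. Cells were plated the day before, then treated with compounds in DMSO/media containing doxycycline at 37° C, 5% CO2.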

[5] = Liver Microsome Stability Assay (human); details: human liver microsomes, with NADPH, 1.0 uM compound
Method: (§1) Stability of a compound was assessed in the presence of liver microsomes from various sources—mouse, rat, monkey and human liver microsomes. 1.0 uM compound, 0.4% DMSO in 0.1 M Potassium Phosphate with 1.0 mg/mL liver microsomes, were incubated at 37° C. with or without 1 mM NADPH. The samples were quenched at 0, and 30 minutes.

[6] = Liver Microsome Stability Assay (monkey); details: monkey liver microsomes, with NADPH, 1.0 uM compound
Method: as §1

[7] = test system: multiple myeloma cell line NCI-H929; test: H929 Cell Viability Assay; format: cell-based, human; details: Homo sapiens, NCI-H929, 48 h, NCI-H929 cells, Celltiter-Glo
Outline: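 NCI-H929 cells, resuspended in RPMI 1640 with 10% FBS and 2 mM glutamine, were treated with compound dilutions in DMSO/media and incubated 48 hours at 37° C, 5% CO2. Viability was read by CellTiter-Glo luminescence. Compounds drawn without stereochemistry were tested as stereoisomer mixtures.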

[8] = Liver Microsome Stability Assay (rat); details: rat liver microsomes, with NADPH, 1.0 uM compound
Method: as §1

[9] = test system: PD1-ss+10aa/Gaussia Luciferase; test: Dox-Induced PD1-ss-Gluc Assay; format: cell-based; details: 24 hr Dox induction, 293FRT/TO cells, read-out: 24 hr Dox Inducible PD1ssGluc 293FRT/TO: Mean IC50
Outline: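 Doxycycline-induced expression of a PD1-ss+10aa/Gaussia luciferase reporter is measured in stable Flp-In 293 T-REx cells. Compound dilutions containing doxycycline are added one day after plating and incubated at 37 °C, 5% CO2. Values for unassigned stereocentres refer to stereoisomer mixtures.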

[10] = Liver Microsome Stability Assay (mouse); details: mouse liver microsomes, with NADPH, 1.0 uM compound
Method: as §1

[11] = '<=>' given where both are I.A.

| pEC50 [1] | pIC50 ([2]; mean) | pIC50 ([3]; mean) | pIC50 ([4]; mean) | Liver Microsome Stability (Multiple Species): Human - % Remaining after 30 min w/NADPH [5] [%] | Liver Microsome Stability (Multiple Species): Monkey - % Remaining after 30 min w/NADPH [6] [%] | pEC50 [7] | Liver Microsome Stability (Multiple Species): Rat - % Remaining after 30 min w/NADPH [8] [%] | pIC50 ([9]; mean) | Liver Microsome Stability (Multiple Species): Mouse - % Remaining after 30 min w/NADPH [10] [%] | pIC50 [2] | pIC50 [3] | pIC50 [4] | pIC50 [9] | Compound | 24 hr Dox Inducible TNFaFLGluc 293FRT/TO: TNF/PD1 [3, 11] | 24 hr Dox Inducible IL2FLGluc 293FRT/TO: IL2/PD1 [4, 11] | 24 hr Dox Inducible TNFaFLGluc 293FRT/TO: TNF/PD1 [3] | 24 hr Dox Inducible IL2FLGluc 293FRT/TO: IL2/PD1 [4] |
| --- | --- | --- | --- | --- | --- | --- | --- | --- | --- | --- | --- | --- | --- | --- | --- | --- | --- | --- |
| 4.91 | 5.21 | < 4.60 | < 4.60 | 0.03 | 0.04 | 5.06 | 0.06 | 6.23 | 0.09 | – | – | – | – | CC(C)c1ccc(/C=C/c2csc(NC(=O)c3cccn3CC3CCOCC3)n2)nc1 [Compound D6, (E)-N-(4-(2-(5-isopropylpyridin-2-yl)vinyl)thiazol-2-yl)-1-((tetrahydro-2H-pyran-4-yl)methyl)-1H-pyrrole-2-carboxamide] | >42.0 | >42 | – | – |
| 4.92 | – | – | – | 0.16 | 0.01 | 6.00 | 6.14 | – | 0.06 | 7.19 | 6.68 | 7.51 | 7.28 | CC(=O)N1CCC(Oc2ccc(N3CCC[C@@H]3c3csc(NC(=O)c4cccn4Cc4ccnc(F)c4)n3)c(Cl)c2)CC1 [Compound A143, (R)-N-(4-(1-(4-((1-acetylpiperidin-4-yl)oxy)-2-chlorophenyl)pyrrolidin-2-yl)thiazol-2-yl)-1-((2-fluoropyridin-4-yl)methyl)-1H-pyrrole-2-carboxamide] | – | – | 4.03 | 0.6 |
| < 4.60 | < 4.60 | < 4.60 | < 4.60 | 82.1 | 81.3 | < 4.60 | 87.9 | < 4.60 | 64.9 | – | – | – | – | O=C(O)CCCn1cccc1C(=O)Nc1nc([C@H]2CCCN2c2ccccc2)cs1 [Compound C13] | – | 1 | – | – |
| 5.24 | – | – | – | 68.8 | 51.6 | 5.50 | 27.9 | – | 16.5 | 6.45 | 5.39 | 6.36 | 6.81 | CN(C)CCOc1ccc(N2CCC[C@@H]2c2csc(NC(=O)c3cccn3Cc3ccnc(F)c3)n2)cc1 [Compound A104, (R)-N-(4-(1-(4-(2-(dimethylamino)ethoxy)phenyl)pyrrolidin-2-yl)thiazol-2-yl)-1-((2-fluoropyridin-4-yl)methyl)-1H-pyrrole-2-carboxamide] | – | – | 26.3 | 2.8 |
| < 4.60 | – | – | – | 8.85 | 1.39 | < 4.60 | 1.44 | – | 1.17 | 6.90 | 5.38 | 6.24 | 7.65 | Cc1ccc(/C=C/c2csc(NC(=O)c3cccn3Cc3ccncc3)n2)nc1F [Compound B48, (E)-N-(4-(2-(6-fluoro-5-methylpyridin-2-yl)vinyl)thiazol-2-yl)-1-(pyridin-4-ylmethyl)-1H-pyrrole-2-carboxamide] | – | – | 184 | 26 |
| < 4.60 | < 4.60 | < 4.60 | < 4.60 | 0.67 | 0.22 | < 4.60 | 19.2 | 5.16 | 15.2 | – | – | – | – | O=C(Nc1nc(/C=C/c2cn(CCO)cn2)cs1)c1cccn1Cc1ccncc1 [Compound C114, (E)-N-(4-(2-(1-(2-hydroxyethyl)-1H-imidazol-4-yl)vinyl)thiazol-2-yl)-1-(pyridin-4-ylmethyl)-1H-pyrrole-2-carboxamide] | >3.62 | >3.6 | – | – |
| 4.82 | 5.28 | < 4.60 | 5.14 | 32.8 | 7.86 | 4.93 | 8.19 | 5.58 | 31.1 | – | – | – | – | N#CC1CC1Cn1cccc1C(=O)Nc1nc([C@H]2CCCN2c2ccccc2)cs1 (stereo partly drawn) [Compound C6, 1-((2-cyanocyclopropyl)methyl)-N-(4-((R)-1-phenylpyrrolidin-2-yl)thiazol-2-yl)-1H-pyrrole-2-carboxamide] | >9.60 | 2.8 | – | – |
| < 4.60 | – | – | – | 0.48 | 2.25 | < 4.60 | 0.73 | – | 5.73 | 5.78 | < 4.60 | 5.34 | 6.66 | O=C(Nc1nc(/C=C/c2coc(C3CC3)n2)cs1)c1cccn1Cc1ccncc1 [Compound B40, (E)-N-(4-(2-(2-cyclopropyloxazol-4-yl)vinyl)thiazol-2-yl)-1-(pyridin-4-ylmethyl)-1H-pyrrole-2-carboxamide] | – | – | >113 | 21 |
| < 4.60 | 6.02 | 5.56 | 5.92 | 0.1 | 0.23 | < 4.60 | 0.28 | 6.80 | 0.38 | – | – | – | – | O=C(Nc1nc(CCc2ccc(OC(F)(F)F)cn2)cs1)c1cccn1Cc1ccncc1 [Compound E7, 1-(pyridin-4-ylmethyl)-N-(4-(2-(5-(trifluoromethoxy)pyridin-2-yl)ethyl)thiazol-2-yl)-1H-pyrrole-2-carboxamide] | 17.4 | 7.5 | – | – |
